Values of other authors in patent publication US20120101165A1, “Urea Compositions With Cooling Effect” (priority 2007, published 2012).
Like-named read-outs stand apart in the source and are kept apart here.

Columns and labels:
[1] = endothermic
[2] = 20% urea solution
[3] = not given; remark: listed apart in the source

## NC(N)=O [urea, diaminomethanal]
At 20° C.
  critical relative humidity: about 81%
At 30° C.
  critical relative humidity: about 73%
[1]
  heat of solution in water: about −57.8 cal/g
[2]; after 11 months at room temperature
  pH after storage: 8.8
[2]; initial
  initial pH: about 7.4
[3]; at 20° C.
  solubility in water: 108 g/100 mL
[3]; at 100° C.
  solubility in water: 733 g/100 mL
